Assay results published in article PMC10216263, “Favorable Preclinical Pharmacological Profile of a Novel Antimalarial Pyrrolizidinylmethyl Derivative of 4-amino-7-chloroquinoline with Potent In Vitro and In Vivo Activities” (Biomolecules, 2023).

Legend:
[1] = system: Salmonella typhimurium TA98; test: Bacterial Reverse Mutation Assay; details: TA 98, with metabolic activation
Method: using the preincubation method (30 min, 37°C) with and without phenobarbital-5,6-benzoflavone induced
MG3 was dissolved in distilled water (H2O) at
the maximum concentration of 40 mg/mL and tested in a preliminary range-finding test in all strains of
metabolic activation to determine the toxicity of the compound.

[2] = system: P. falciparum FCR3 (CQ-R); test: In vitro antimalarial activity, [3H]-hypoxanthine incorporation (LSHTM); assay type: cell-based; details: Plasmodium falciparum, FCR3; 72 h, [3H]-hypoxanthine incorporation, mean of 3 experiments; read-out: P. falciparum IC50 nM, FCR3 (CQ-R)
P. berghei ANKA [3] = test: Oral curative activity against P. berghei ANKA; assay type: in vivo, P. berghei in mice
[4] = system: P. falciparum TM90C2A (CQ-R); test: In vitro antimalarial activity, [3H]-hypoxanthine incorporation (LSHTM); assay type: cell-based; details: Plasmodium falciparum, 72 h, [3H]-hypoxanthine incorporation, mean of 3 experiments, read-out: P. falciparum IC50 nM, TM90C2A (CQ-R)
[5] = CD1, mouse, in vivo, po, 10 mg/kg
P. berghei ANKA [6] = test: Four-day suppressive Peters' test, oral; assay type: in vivo, P. berghei in CD1 mice; details: once a day for 4 days, parasitemia day 4, CD1 mice
Method: Groups of five CD1 mice were inoculated i.v., with 4 × 10^6 infected erythrocytes/mice. Compounds, dissolved in standard suspending formula (SSV) (0.5% sodium carboxymethylcellulose, 0.5% benzyl alcohol, 0.4% Tween 80, and 0.9% NaCl), were administered once a day for 4 days via oral gavage, starting two hours post-infection. […] Parasitemia was evaluated using microscopic examination of Giemsa-stained blood films taken on day four, processed using MICROSOFT® EXCEL spreadsheets (Microsoft Corp., Redmond, WA, USA), and expressed as percentages of inhibition from the arithmetic mean parasitemia of each group in relation to the untreated group. ED50 and ED90 values were calculated using GraphPad Prism 6 (GraphPad Software Inc., La Jolla, CA, USA).

P. falciparum K1 (CQ-R) = test: In vitro combination study (isobologram, ∑FIC); assay type: cell-based
[7] = Chemical stability in incubation medium; assay type: physicochemical; details: 90 min at 37 °C, Leibovitz L-15 medium
Method: An automatic liquid handling system (Multiprobe II EX, Packard) was used for sampling. At 0, 10, 20, 30, 60 and 90 min, […] aliquots of the incubates were taken and added with […] of ice-cold ACN and […] of 1 µM warfarin in ACN (internal standard), and samples centrifuged at 2000 rpm for 20 min. The analysis of supernatant was conducted using LC-MS/MS. MG3 was incubated in the medium under the same conditions to evaluate the chemical stability; 7-ethoxycoumarin (7-ETC) 1 µM and 7-hydroxycoumarin (7-HC) 30 µM were utilized as positive controls for Phase I and Phase II activities. […] Half-life and CLint were determined from the concentration (counts) remaining at the different sampling points using the LC-MS/MS method. The slope was calculated using linear regression analysis of the curve (natural logarithmic area of the compound remaining against the time) and converted into the half-life (t1/2) and CLint expressed as µL/min/million cells and mL/min/kg, respectively.

in vivo = test: in vivo; design: species or system male Sprague Dawley rats; details: male, Sprague Dawley, rat
Method: The formulations were prepared on the days of dosing, immediately before administration. MG3 for IV administration was formulated as in situ dimesylate salt, in 5% of glucose solution (4 mg/mL nominal concentration), while for oral administration it was prepared by suspending the test item in 0.5% methocel solution (v/v) (6 mg/mL nominal concentration). […] After 5-days postoperative recovery period, MG3 was administered and serial blood samples (about 0.3 mL) were collected from femoral vein using heparinized syringe at 5, 15, and 30 min, 1, 3, 6, 24-, 48-, 72- and 96-hours post-dosing after IV administration and at 15, and 30 min, 1, 3, 6 and 24-, 48-, 72- and 96-hours post-dosing after oral administration. The samples were then transferred into pre-cooled tubes protected from light and centrifuged at 3000 rpm for 4 min at +4 °C to collect plasma, and single aliquots of plasma were stored at −80 °C until analysis. Sample analysis: 400 µL of methanol was added to 10 µL of plasma in a 96-well plate; after centrifugation for 15 min at 2000 rpm at 6 °C, an aliquot of 360 µL of supernatant was transferred into a new 96-well plate and dried at 40 °C. Sample extracts were reconstituted with a volume of 150 µL of a mixture solution of 10 mM ammonium formate pH 3.5:methanol (90:10; v/v) and centrifuged for 3 min at 2000 rpm at 6 °C and the supernatant was injected onto the LC-MS/MS system. A HP1100 HPLC with a Synergy 4 um Hydro-RP 80A 2.0 × 50 mm column, coupled with AB/MDS Sciex 4000 QTrap in positive ion mode was utilized for analysis; 10 µL samples were injected, a gradient with 10 mM ammonium formate pH 3.5 and methanol was utilized. Data obtained were analyzed using the non-compartmental approach (Watson package v. 6.4.0.04, Thermo Fisher Scientific, Waltham, MA, USA).

Clc1ccc2c(NCC34CCCN3CCC4)ccnc2c1 [MG3, 7-Chloro-N-((hexahydro-1H-pyrrolizin-7a-yl)methyl)quinolin-4-amine]
fold increase value (ratio treated/solvent revertant numbers) ([1]; I° Exp., 1000 µg/plate): 1.1 | fold increase value (ratio treated/solvent revertant numbers) ([1]; I° Exp., 62.5 g/plate): 1.1 | fold increase value (ratio treated/solvent revertant numbers) ([1]; I° Exp., 125 g/plate): 1.2 | fold increase value (ratio treated/solvent revertant numbers) ([1]; I° Exp., 250 g/plate): 1.4 | fold increase value (ratio treated/solvent revertant numbers) ([1]; I° Exp., 500 g/plate): 1.5 | fold increase value (ratio treated/solvent revertant numbers) ([1]; Range finding, 1000 µg/plate): 1.0 | fold increase value (ratio treated/solvent revertant numbers) ([1]; Range finding, 1.95 g/plate): 0.9 | fold increase value (ratio treated/solvent revertant numbers) ([1]; Range finding, 3.9 g/plate): 0.9 | fold increase value (ratio treated/solvent revertant numbers) ([1]; Range finding, 7.81 g/plate): 1.5 | fold increase value (ratio treated/solvent revertant numbers) ([1]; Range finding, 15.63 g/plate): 1.2 | fold increase value (ratio treated/solvent revertant numbers) ([1]; Range finding, 31.25 g/plate): 1.0 | fold increase value (ratio treated/solvent revertant numbers) ([1]; Range finding, 62.5 g/plate): 1.3 | fold increase value (ratio treated/solvent revertant numbers) ([1]; Range finding, 125 g/plate): 1.3 | fold increase value (ratio treated/solvent revertant numbers) ([1]; Range finding, 250 g/plate): 1.2 | fold increase value (ratio treated/solvent revertant numbers) ([1]; Range finding, 500 g/plate): 1.2 | IC50 [2]: 13.2 nM | prolonged mice survival compared to CQ, amodiaquine or artesunate (P. berghei ANKA [3]; 30 mg/kg for 3 times): approximately 50% | curative activity (P. berghei ANKA [3]; 30 mg/kg for 3 times, P. berghei-infected mice): not curative | % Suppression of parasitaemia (on day 4 post infection) (P. berghei ANKA [3]; oral dose 3 x 30 mg/kg): 100% | Average survival (days) after infection (P. berghei ANKA [3]; oral dose 3 x 30 mg/kg, individual values in brackets): 22 (17, 23, 23, 24, 24) days | IC50 [4]: 14.4 nM | AUClast [5]: 41,067 min*ng/mL | ED50 (P. berghei ANKA [6]; Plasmodium berghei, 96 h, read-out: ED50 (95% CI) Mean): 5.22 mg/kg | ED90 (95% CI) Mean (P. berghei ANKA [6]): 7.55 (6.38–8.72) mg/kg | Mean ∑FIC50 (95% CI) (P. falciparum K1 (CQ-R); in combination with ASN, K1, IC50 level): 1.25 (0.94 – 1.56) | Mean ∑FIC50 (95% CI) (P. falciparum K1 (CQ-R); in combination with DHA, K1, IC50 level): 1.25 (1.21 – 1.29) | Mean ∑FIC50 (95% CI) (P. falciparum K1 (CQ-R); in combination with RKA-182, K1, IC50 level): 1.24 (0.85 – 1.63) | interaction (isobologram) (P. falciparum K1 (CQ-R); in combination with azitromycin, K1 (CQ-R)): additive | chemical stability in incubation medium alone [7]: did not show any degradation | AUC(0-inf) (in vivo; iv, 10 mg/kg): 1300 ± 223 ng·h/mL | AUC(0-t) (in vivo; iv, 10 mg/kg): 1290 ± 217 ng·h/mL | Cmax (in vivo; iv, 10 mg/kg): 395 ± 118 ng/mL | Vd (in vivo; iv, 10 mg/kg): 59.9 L/kg | clearance (in vivo; iv, 10 mg/kg): 139 ± 20.2 mL/min/kg | half-life (in vivo; iv, 10 mg/kg): 7.7 ± 0.6 h | tlast (in vivo; iv, 10 mg/kg): 48.0 ± 0.1 h | AUC(0-inf) (in vivo; po, 30 mg/kg): 4400 ± 633 ng·h/mL | AUC(0-t) (in vivo; po, 30 mg/kg): 4360 ± 630 ng·h/mL | Cmax (in vivo; po, 30 mg/kg): 213 ± 23.7 ng/mL | half-life (in vivo; po, 30 mg/kg): 10.7 ± 1.2 h | still detectable in the plasma up to (in vivo; po, 30 mg/kg): 72 to 96 h | tlast (in vivo; po, 30 mg/kg): 80.0 ± 13.9 h
